Experimental findings from PMC4705544, “CPUY201112, a novel synthetic small-molecule compound and inhibitor of heat shock protein Hsp90, induces p53-mediated apoptosis in MCF-7 cells” (Scientific Reports, 2016) are described below.

For this test, the target named is T1, Hsp90α (Homo sapiens, UniProt P07900).
T1 construct: gene HSP90AA1; full-length Hsp90
Briefly: BLI (ForteBio Octet Red […]); also FP competition with FITC-geldanamycin (IC50 […]) and HTRF ATPase inhibition. The format is binding.

Each structure is given as a SMILES string.

The compound `CCOc1ncc2c(n1)CCN(C(=O)c1cc(C(C)C)c(O)cc1O)C2` [CPUY201112] yielded a Kd of 0.027 ± 0.005 µM.
